In US9896418B2, “Aryl ethers and uses thereof” (Peloton Therapeutics, Inc., priority 2013, dated 2018) one finds IC50 data, which are given here for 16 compounds.

Structures are written as SMILES.

This assay has as its system HIF-2α HIS TAG-PASB Domain. The assay is described as follows: HIF-2α Scintillation Proximity Assay (SPA). The assay is classed as binding. How it is done:
The percent inhibition was determined and IC50 values were calculated using the Dotmatics system based on the following equation: % inhibition=[(high control−sample)/(high control−low control)]×100.
In general terms: SPA uses beads or plates that emit light when radiolabelled molecules are held near them.
In the case of `N=S(=O)(c1ccc(Oc2cc(F)cc(Cl)c2)c(Br)c1Cl)C(F)(F)F` (stereo not shown) [Compound 75, (3-bromo-2-chloro-4-(3-chloro-5-fluorophenoxy)phenyl)(imino)(trifluoromethyl)-λ^6-sulfanone], 240 nM corresponded to half-maximal inhibition (IC50). To `N#Cc1c(S(=O)(=O)C(F)F)ccc(Oc2cc(F)cc(Cl)c2)c1Br` [Compound 76, 2-bromo-3-(3-chloro-5-fluorophenoxy)-6-((difluoromethyl)sulfonyl)benzonitrile] belongs 880 nM; to `N#Cc1cc(F)cc(Oc2ccc(S(=O)(=O)C(F)F)c(C#N)c2Br)c1` [Compound 77, 2-Bromo-3-(3-cyano-5-fluorophenoxy)-6-((difluoromethyl)sulfonyl)benzonitrile], 1900 nM; to `CC(=O)c1c(S(=O)(=O)C(F)(F)F)ccc(Oc2cc(F)cc(C#N)c2)c1C#N` [Compound 79, 2-Acetyl-6-(3-cyano-5-fluorophenoxy)-3-((trifluoromethyl)sulfonyl)benzonitrile], 1300 nM.

`N#Cc1cc(F)cc(Oc2ccc(S(=O)(=O)C(F)F)c(CO)c2Br)c1` [Compound 80, 3-(2-Bromo-4-((difluoromethyl)sulfonyl)-3-(hydroxymethyl)phenoxy)-5-fluorobenzonitrile] yielded an IC50 of 22 nM. Compared with the last compound, the IC50 is about 59-fold lower.

For `N#Cc1cccc(Oc2ccc(S(=O)(=O)C(F)F)c(CO)c2Br)c1` [Compound 81, 3-(2-Bromo-4-((difluoromethyl)sulfonyl)-3-(hydroxymethyl)phenoxy)benzonitrile], half-maximal inhibition (IC50) required 290 nM. To `COC(=O)c1c([S+]([O-])C(F)F)ccc(Oc2cc(F)cc(Cl)c2)c1Br` (stereo not shown) [Compound 82, Methyl 2-bromo-3-(3-chloro-5-fluorophenoxy)-6-((difluoromethyl)sulfinyl)benzoate] belongs 15000 nM. For `CC(C)(C)OC(=O)NCc1c(S(=O)(=O)C(F)F)ccc(Oc2cc(F)cc(Cl)c2)c1Br` [Compound 83, tert-butyl (2-bromo-3-(3-chloro-5-fluorophenoxy)-6-((difluoromethyl)sulfonyl)benzyl)carbamate], the IC50 worked out at 3200 nM. To `NCc1c(S(=O)(=O)C(F)F)ccc(Oc2cc(F)cc(Cl)c2)c1Br` [Compound 85, (2-Bromo-3-(3-chloro-5-fluorophenoxy)-6-((difluoromethyl)sulfonyl)phenyl)methanamine] belongs 2900 nM. Consider `CC(=O)NCc1c(S(=O)(=O)C(F)F)ccc(Oc2cc(F)cc(Cl)c2)c1Br` [Compound 86, N-(2-Bromo-3-(3-chloro-5-fluorophenoxy)-6-((difluoromethyl)sulfonyl)benzyl)acetamide], for which the IC50 stood at 71000 nM. To `O=S(=O)(c1ccc(Oc2cccc(C(F)(F)F)c2)c(Br)c1CO)C(F)F` [Compound 89, (2-Bromo-6-((difluoromethyl)sulfonyl)-3-(3-(trifluoromethyl)phenoxy)phenyl)methanol] belongs 1400 nM; to `CS(=O)(=O)c1ccc(Oc2cc(F)cc(Cl)c2)c2c1C(O)CC2` (stereo not shown) [Compound 90, 4-(3-Chloro-5-fluorophenoxy)-7-(methylsulfonyl)-2,3-dihydro-1H-inden-1-ol], 230 nM; to `CCS(=O)(=O)c1ccc(Oc2cc(F)cc(Cl)c2)c2c1C(O)CC2` (stereo not shown) [Compound 91, 4-(3-Chloro-5-fluorophenoxy)-7-(ethylsulfonyl)-2,3-dihydro-1H-inden-1-ol], 280 nM. To `CS(=O)(=O)c1ccc(Oc2cc(F)cc(Cl)c2)c(C(F)F)c1C#N` [Compound 92, 3-(3-Chloro-5-fluorophenoxy)-2-(difluoromethyl)-6-(methylsulfonyl)benzonitrile] belongs 37 nM. `CS(=O)(=O)c1ccc(Oc2cc(F)cc(F)c2)c(C(F)F)c1C#N` [Compound 93, 2-(Difluoromethyl)-3-(3,5-difluorophenoxy)-6-(methylsulfonyl)benzonitrile] returned a 50% inhibitory concentration (IC50) of 170 nM.

Take `CS(=O)(=O)c1ccc(Oc2cc(F)cc(C#N)c2)c(C(F)F)c1C#N` [Compound 94, 3-(3-Cyano-5-fluorophenoxy)-2-(difluoromethyl)-6-(methylsulfonyl)benzonitrile]: the IC50 worked out at 130 nM.

What is called IC50 is the midpoint of a concentration-inhibition curve.
